# Measurements published in patent US20160166604A1, “Thiol-Sensitive Positive Inotropes” (priority 2005, published 2016).
# Experiment: End-diastolic pressure-volume relationship (EDPVR) in chronically instrumented dogs with pacing-induced cardiac failure
# Type: in vivo
# Settings: CHF dog preparations
# Experimental: Adult male mongrel dogs (22-25 kg) were chronically instrumented for pressure-dimension analysis as described. See, Paolocci et al., “Positive Inotropic and Lusitropic Effects of HNO/NO− in Failing Hearts: Independence from Beta-Adrenergic Signaling,” Proc. Natl. Acad. Sci. USA., 100, 5537-5542 (2003); and Senzaki et al., Circulation, 101, 1040-1048 (2000). Animals were anesthetized with 1% to 2% halothane after induction with sodium thiopental (10-20 mg/kg, i.v.). The surgical/experimental animal protocol was approved by the Johns Hopkins University Animal Care and Use Committee. […] Cardiac failure was induced by rapid ventricular pacing for 3 weeks as described. See, Paolocci et al., supra, and Senzaki et al., supra.
# Hemodynamic data were digitized at 250 Hz. […] These relations strongly correlate with results from pressure-volume data in normal and failing hearts, as previously validated. Cardiovascular function was assessed by stroke dimension, fractional shortening (stroke dimension/end-diastolic dimension [EDD]), estimated cardiac output (stroke dimension×HR), peak rate of pressure rise (dP/dtmax), end-systolic elastance (Ees, slope of end-systolic pressure-dimension relation [ESPDR]), the slope of dP/dtmax-EDD relation (DEDD) (see, Little, Circ Res., 56:808-815 (1985)), pre-recruitable stroke work (PRSW), (based on dimension-data), estimated arterial elastance (Ea, end systolic pressure/stroke dimension) and estimated total resistance (RT, […]). Ees, DEDD and PRSW provide load-insensitive contractility measures.
# The end-diastolic pressure-volume relationship (EDPVR) was determined applying non-linear regression analysis to the end-diastolic pressure and volume points (Ped and Ved, respectively), according to Kass, Cardiol Clin., 18, 571-86 (2000) (Review).
# In order to evaluate the impact of each pharmacological intervention on the EDPVR, changes in end-diastolic pressure from baseline (ΔPed) at volumes providing baseline end-diastolic pressure of […] mmHg EDP (V10, V15, V20, respectively) were determined (FIG. 5).
smiles,measurement,value
"[Na+].[Na+].[O-][N+]([O-])=NO [AS, Angeli's salt]",effect on end-diastolic pressure-volume relationship (EDPVR),declined significantly
